Structures can show the parent of a compound that is named as a salt.
What was measured:
Set-up in all cases: cell survival: unit of the concentration uncertain
[1] = tested on: K562 expressing BCR-ABL T315I; test: Cytotoxicity assay, K562-T315I cells; assay type: cell-based, human
Experimental: (§1) Cytotoxicity assay: CML patient derived cell lines K562 expressing BCR-ABL T315I, Ph+ALL cell line BV173-T315I, and mouse cell line Ba/F3 T315I were used for cytotoxicity testing. All these cell lines express T315I mutant of BCR-ABL. BV-173-T315I is also a model for blast crisis, the terminal stage in CML. Cell lines were cultured in Iscove's Modified Dulbecco's Medium (IMDM) containing L-glutamine and 25 mM Hepes. The cells were maintained at 37° C. in a humidified CO2 incubator. For cytotoxicity measurement 5000-8000 cells were plated into 96 well plates in quadruplicates. Drugs were dissolved in DMSO and cells were treated in increasing doses ranging from 1 to 10^7 fold. Control cells were treated with respective amounts of DMSO. Cells were incubated for 72 hours and, at the end of the incubation point cell, viability was determined. For this purpose, 25 μl of the cell culture from the 96 well plates were transferred to Ultracruz® black bottom 96 well plates (Santa Cruz Biotechnology) and 25 μl of a live cell detecting fluorescent reagent (Cellular Technology Limited (“CTL”)) was added to the cells. The cells and the CTL reagent was mixed thoroughly and centrifuged for 5 min, at the standard g levels normally used to accelerate settling of the cells to the bottom of the culture medium container without damaging the living cells, and the fluorescence was detected at 405 nm excitation using a CTL scanner. Viable cells will fluoresce green and the machine automatically scans and counts the number of viable cells from each well. The percentage of viable cells in drug treated samples relative to the number of viable cells in DMSO treated samples was then calculated. The data obtained were analyzed using Prism nonlinear regression software (Graphpad Software) for the curve fitting and determination of IC50 values.

[2] = tested on: mouse cell line Ba/F3 T315I; test: Cytotoxicity assay, Ba/F3-T315I cells; assay type: cell-based; conditions: for cancer cell survival rate compared to the DMSO control: 72 hours
Experimental: as §1

[3] = tested on: Ph+ALL cell line BV173-T315I; test: Cytotoxicity assay, BV173-T315I cells; assay type: cell-based
Experimental: as §1

[4] = about 10^−6 M to about 10^−5 M, 72 hours

## N#Cc1cc2cc3c(cc2nc1SCC(=O)Nc1ccccc1C(N)=O)OCCO3 [AP-R230, 2-[2-(8-cyano-2H,3H-[1,4]dioxino[2,3-g]quinolin-7-ylsulfanyl)acetamido]benzamide]
[1]; about 5 μM to about 10 μM, 72 hours
  cancer cell survival rate compared to the DMSO control: less than 4%
[2]; about 5 μM to about 10 μM
  cancer cell survival rate compared to the DMSO control: less than 4%

## Cc1cc(C(=O)Nc2ccc(CN3CCN(C)CC3)cc2)ccc1NC(=O)CSc1nc2cc3c(cc2cc1C#N)OCCO3 [AP-R234, 4-[2-(8-cyano-2H,3H-[1,4]dioxino[2,3-g]quinolin-7-ylsulfanyl)acetamido]-3-methyl-N-4-[(4-methylpiperazin-1-yl)methyl]phenylbenzamide hydrochloride]
[1]; dosage printed as 'about M', 72 hours
  cancer cell survival rate compared to the DMSO control: less than 4%
[2]; dosage printed as 'about M'
  cancer cell survival rate compared to the DMSO control: less than 4%

## Cc1ccc(CN2CCCC2)cc1NC(=O)CSc1nc2cc3c(cc2cc1C#N)OCCO3 [AP-R235, 2-[(8-cyano-2,3-dihydro-[1,4]dioxino[2,3-g]quinolin-7-yl)sulfanyl]-N-[2-methyl-5-(pyrrolidin-1-ylmethyl)phenyl]acetamide hydrochloride]
[1]; about 10 μM, 72 hours
  cancer cell survival rate compared to the DMSO control: less than 10%
[2]; about 10 μM
  cancer cell survival rate compared to the DMSO control: less than 2%

## Cc1cccc(Cl)c1NC(=O)CSc1nc2cc3c(cc2cc1C#N)OCCO3 [AP-R342, N-(2-chloro-6-methylphenyl)-2-({8-cyano-2H,3H-[1,4]dioxino[2,3-g]quinolin-7-yl}sulfanyl)acetamide]
[1]; [4]
  cancer cell survival rate compared to the DMSO control: less than 7%
[3]; [4]
  cancer cell survival rate compared to the DMSO control: less than 7%
[2]; about 10^−6 M to about 10^−5 M
  cancer cell survival rate compared to the DMSO control: less than 7%

## Cc1cc(F)ccc1NC(=O)CSc1nc2cc3c(cc2cc1C#N)OCCO3 [AP-R343, 2-({8-cyano-2H,3H-[1,4]dioxino[2,3-g]quinolin-7-yl}sulfanyl)-N-(4-fluoro-2-methylphenyl)acetamide]
[1]; [4]
  cancer cell survival rate compared to the DMSO control: less than 5%
[3]; [4]
  cancer cell survival rate compared to the DMSO control: less than 5%
[2]; about 10^−6 M to about 10^−5 M
  cancer cell survival rate compared to the DMSO control: less than 5%

## Cc1cc(CN2CCCC2)ccc1NC(=O)CSc1nc2cc3c(cc2cc1C#N)OCCO3 [AP-R352, 2-((8-cyano-2,3-dihydro-[1,4]dioxino[2,3-g]quinolin-7-yl)thio)-N-(2-methyl-4-(pyrrolidin-1-ylmethyl)phenyl)acetamide dihydrochloride]
[1]; Homo sapiens, 72 hours, read-out: IC50 for cell killing
  IC50: 1090 nM
[3]; 72 hours, read-out: IC50 for cell killing
  IC50: 540 nM
[2]; Mus musculus, BaF3, 72 hours, read-out: IC50 for cell killing
  IC50: 800 nM

## Cc1cc(NC(=O)CSc2nc3cc4c(cc3cc2C#N)OCCO4)n(C)n1 [AP-R357, 2-((8-cyano-2,3-dihydro-[1,4]dioxino[2,3-g]quinolin-7-yl)thio)-N-(1,3-dimethyl-1H-pyrazol-5-yl)acetamide]
[1]; about 30 μM, 72 hours
  cancer cell survival rate compared to the DMSO control: less than 20%
[3]; about 30 μM, 72 hours
  cancer cell survival rate compared to the DMSO control: less than 6%
[2]; about 30 μM
  cancer cell survival rate compared to the DMSO control: less than 7%

## Cc1nn(C)cc1NC(=O)CSc1nc2cc3c(cc2cc1C#N)OCCO3 [AP-R358, 2-((8-cyano-2,3-dihydro-[1,4]dioxino[2,3-g]quinolin-7-yl)thio)-N-(1,3-dimethyl-1H-pyrazol-4-yl)acetamide]
[1]; at 0.625 (unit uncertain)
  cell survival: above 90%
[1]; at 10 (unit uncertain)
  cell survival: about 20%
[3]; at 0.625 (unit uncertain)
  cell survival: above 90%
[3]; at 10 (unit uncertain)
  cell survival: about 20%
[2]; at 0.625 (unit uncertain)
  cell survival: above 90%
[2]; at 10 (unit uncertain)
  cell survival: about 20%
